Measurements published in US6271254A, “Pharmaceutical compositions containing R-α-lipoic acid or S-α-lipoic acid as active ingredient” (ASTA Pharma Aktiengesellschaft, priority 1989, dated 2001).

What was measured:
[1] = test system: mouse; experiment: acid writhing pain test in the mouse (acetic acid test); type: in vivo; details: po, per os, 50% inhibition of writhing syndrome, read-out: analgesically active ED50
Description: Acetic acid test (writhing test) in the mouse Method: In the acetic acid test after KOSTER et al. (Fed. Proc., Vol. 18, page 412 (1959)) the pain stimulus triggered by an intraperitoneal injection of 1% acetic acid. The pain reaction is expressed in the form of the characteristic stretching of the animals ("writhing syndrome") which continues at irregular time intervals form some time after injection of the acetic acid. The dose-dependent inhibition of the frequency of the stretching movement as compared to an untreated control group is expressed in percent as analgesic activity. Evaluation is by determination type the ED50 (Method of linear regression). The ED50 is the dose in mg/kg at which there is a 50% inhibition of the "writhing syndrome".

[2] = test system: rat; experiment: Randall-Selitto inflammatory pain test in the rat; type: in vivo; details: po, per os; for ED50: 0.5 h, Randall-Selitto test, rat, 50% analgesic activity, read-out: analgesically effective ED50
Procedure: Randall-Selitto test (inflammatory pain in the rat)
By analogy with the method according to RANDALL and SELITTO (L. O. Randall and J. Selitto, Arch. int. Pharmacodyn. Vol. 111, pages 409-418 (1957)), rats receive subplantar injections of 0.1 ml of a 20% (in demineralized water) brewer's yeast suspension into the right back paw. 2 1/2 hours thereafter the test substances are administered and 30 minutes thereafter the pain threshold (in grams) is measured as pain in the inflamed paw, using a commercially available algesia meter. The criterion is the defense reaction shown by the animals in pulling the paw away and/or freeing themselves from the research worker's grip. The activity of the substance is measured in the form of the increase in the pain threshold as compared to an untreated control group. The course of the experiment differs from that in the original method in that the substances are only given 21/2 hours after provocation of the edema and not simultaneously therewith. In so doing the intention is to prevent the development of the edema being inhibited by a possible anti-inflammatory activity and masking or feigning analgesia.
The ED50 is determined using the linear regression method. The ED50 here is the dose in mg/kg it which mathematically there is a 50% analgesic activity.

[3] = test system: rat; experiment: carragheen-induced oedema test in the rat; type: in vivo; details: for ED50: 50% inhibition of paw oedema, read-out: anti-inflammatorily active ED50
Procedure: Caragheen-induced edema test for anti-inflammatory activity:
The investigation is conducted in carragheen-induced edema of the rat paw after the method of MOERSDORF and co-workers (Arch.int.Pharmacodyn. 192, 111-127 (1971)). The anti-inflammatory activity is, for example, given as inhibition of edema in percent as compared to the untreated control group. Application is oral or intraperitoneal in all experiments. The substance is administered orally or intraperitoneally 1 hour after triggering the inflammation. The ED50 is the dose in mg/kg at which there is 50% inhibition of the paw oedema.

[4] = test system: human immunodeficiency virus HIV (HIV-1, HIV-2); experiment: growth-inhibiting activity against retroviruses, in particular HIV (HIV-1, HIV-2); type: cell-based; details: in vitro; in words
Description: 3. Determination of reverse transcriptase in culture supernatant
4. Determination of p24 antigen in culture supernatant
In the case of the in vitro experiments the active ingredient is used, for example in benzyl alcohol as solvent.
The following substrates may, for example, be used for the in vitro investigations of the replication behavior of retroviruses, in particular HIV:
1. Virus-containing RPMI 1640 medium, for example 1X liquid 041-01875 (synthetic culture medium from Gibeo according to Moore, Gerner and Franklin, H. A. (1967), J.A.M.A. 199; 519) in a concentration of 2×10^3 -1×10^4 infectious units (PFU)/ml
2. The cell lines Jurkat Clone E6-1, Sup T1 and HeLa CT4.

[5] = analgesic, anti-inflammatory, anti-arthrotic and cytoprotective activity in investigatory models; type: in vivo, mouse, rat, chicken; details: in words
Description: The optical isomers of α-lipoic acid display a good analgesic, anti-inflammatory, anti-arthrotic and cytoprotective activity in, for example, the following investigatory models:
MgSO4 writhing test in the mouse according to GYIRES et al. (Arch.int.pharmacodyn.therap. 267, 131-140 (1984))
Adjuvans arthritis in the rat according to NEWBOULD (Brit.J.Pharmacol. 21, 127-136 (1963))
TPA- or arachidonic acid-induced mouse ear oedema according to YOUNG et al. (J.Invest.Dermatol. 80, 48-52 (1983))
Na-mono-iodazetate-induced arthrosis in rats or chickens according to KALBHEN in: Arthrosis deformans, Eular-Verlag, Basel/Switzerland, 1982
TPA-induced arthrosis in rats according to WEISCHER (Agents and Actions 23, 1/2 (1988))
Intestinal ulcerations in rats according to DEL SOLDATO (Agents and Actions 16, 393-396 (1985))
Colitis-model in the rat according to WEISCHER at al (Agents and Actions, vol. 26, 1/2, page 222 to 223, (1989))
Ethanol-ulcer model in the rat (determination for example of a cytoprotective activity).

[6] = analgesic and anti-inflammatory activity compared with the racemate (general statement, no test named); type: in vivo; details: vs racemate
[7] = acute toxicity in the mouse (method of LITCHFIELD and WILCOXON); details: in vivo, oral administration
Procedure: The acute toxicity of R-α-lipoic acid and S-α-lipoic acid in the mouse (expressed as the LD50 mg/kg; method of LITCHFIELD and WILCOXON, J. Pharmacol. Exp Ther. 95, 99 (1949)), is for example in excess of 100 mg/kg in the case of oral administration.

[8] = po, carragheen-induced oedema, rat, per os

Structure (SMILES)	ED50 [1] [mg/kg]	ED50 [2] [mg/kg]	ED50 [3, 8] [mg/kg]	growth-inhibiting activity against retroviruses, in particular HIV (HIV-1, HIV-2) [4]	antinociceptive and cytoprotective activity (beside anti-inflammatory and anti-arthritic main activity) [5]	anti-inflammatory activity stronger than that of the racemate (factor) [6] [factor]	LD50 [7] [mg/kg]	minimal effective dose ([3]; Rattus norvegicus, po, carragheen-induced oedema test, per os, read-out: minimum anti-inflammatorily effective dose) [mg/kg]	anti-inflammatory activity superior to that of racemic α-lipoic acid (factor) ([3]; carragheen-induced oedema, rat, peroral application)	anti-inflammatory and cytoprotective activity (beside analgesic main activity) [5]	minimal effective dose ([2]; Rattus norvegicus, Randall-Selitto pain test, read-out: minimum analgesically effective dose) [mg/kg]
O=C(O)CCCCC1CCSS1 (racemic) [racemate, 1,2-dithiacyclopentane-3-valeric acid, reference compound]	51.3	45.9	49.7								
O=C(O)CCCC[C@@H]1CCSS1 [R-α-lipoic acid]			4.9	growth-inhibiting activity	to a lesser extent	10	> 100	1	≥ 10		
O=C(O)CCCC[C@H]1CCSS1 [S-α-lipoic acid]	10.2	7.5		growth-inhibiting activity			> 100			to a lesser extent	1
